One data set deals with ERK. Description: VEGF-dependent ERK phosphorylation (western blot). Type of data set: cell-based, human. The note with it: HUVECs treated with VEGF (10 min).
The subject of data set [1] is HUVEC. Description: β-Gal senescence assay. It is filed as cell-based, human. The note with it: for senescence (β-galactosidase positive cells): 48 hours after transfection, relative to controls. An excerpt: After this time cells were washed whit cold PBS and then stain for β-galactosidase activity following manufacture protocol (Senescence Cells Histochemical Staining Kit, Sigma).

The subject of data set [2] is telomerase activity in HUVEC. Nature of the data set: Telomerase activity assay. Type of data set: cell-based, human. The note with it: 48 hours of ectopic expression. The method, then:
[…] Cells were lysed and processed according to the manufacturer's instructions (Quantitative Telomerase Detection Kit, Allied Biotech). The telomerase activity in the cell extract was determined through its ability to synthesize telomeric repeats onto an oligonucleotide substrate. The resulting products were subsequently amplified using the polymerase chain reaction (PCR).

In data set [3] the test system is HUVEC. Description: 3-D angiogenic sprouting assay (fibrin bead). Type of data set: cell-based. The note with it: 3D-fibrinogen assay, co-culture with human aortic smooth muscle cells. The method, then:
Early passage HUVECs were coated on cytodex-3 (GE Healthcare) beads at a density of 10 million cells/40 μl beads and incubated in suspension for 3-4 hours with gentle mixing every hour. They were plated on TC treated 6 well dishes overnight and resuspended in a 2 mg/ml fibrin gel with 200,000 human smooth muscle cells. The gel was allowed to polymerize and complete EGM-2 media was added. Sprouts were visualized from days 3-4 via confocal imaging after overnight incubation with FITC labeled Ulex europaeus lectin (Vector labs). Immunofluorescence imaging was performed on a Yokogawa CSU-W1 spinning disk confocal microscope with 20 0.45 Plan Fluor objective (Nikon).

Another data set relates to p21. Nature of the data set: Western blot of p21 in HUVEC. Type of data set: cell-based, human. The note with it: HUVEC expressing the miRNAs. The method, then:
(§1) After treatment, cells were washed in phosphate-buffered saline (PBS) and prepared in RIPA lysis buffer (Sigma) supplemented with Complete Protease inhibitor cocktail (ROCHE) and Phosphatase inhibitors cocktail 2 and 3 (Sigma). Cells were harvested by scraping, and proteins were analyzed by Western blot. Equivalent amounts of protein were loaded on a 4-12% gradient SDS-polyacrylamide gel (BioRAD) and transferred for 30 min to a TransBlot turbo (BioRAD) nitrocellulose membrane. Membranes were blocked in 5% milk or 3% BSA and incubated with antibodies as indicated: Mre11a (Cell Signaling, 4847, 1:1000), RAD50 (Cell Signaling, 3427, 1:1000), NBS1 (Cell Signaling, 14956, 1:500), p-ATM (Cell Signaling, 4526, 1:500), H2AX (Abcam 11174, 1:500), p21 (Cell Signaling, 2947, 1:1000), P-Rb (Cell Signaling, 9301, 1:500), ERK1/2 (Cell Signaling, 9102, 1:1000), P-ERK1/2 (9101, 1:1000). β-actin (Sigma, A5316, 1:10,000 1 h RT) was used as housekeeping controls for the total levels of protein loaded. Membranes were washed in TBST and incubated with secondary antibodies from Licor Biosciences were used goat anti mouse 925-68020 (1:15,000) and goat anti rabbit 925-32211 (1:15,000). Blots were scanned on the Licor Odyssey scanner according to manufacturer's instructions.

The test system of data set [4] is MRE11a, RAD50, and NBN mRNAs. Nature of the data set: miR-TRAP/RISC TRAP assay. Type of data set: cell-based. The note with it: 293 T cells, 24 hours. As to the method: 293 T cells were co-transfected with a plasmid coding for a flag-tagged dominant negative […] mutant (Clontech) along with a control mimic, miR-99b or miR-494 mimic according to kit instructions. Twenty-four hours later the RNA protein complexes were crosslinked and the RISC complex was immunoprecipitated using an anti-FLAG antibody and RNA was isolated for quantitative real-time PCR of target genes. The fold enrichment was calculated using pre and post IP controls as well as normalization to the control mimic pull-downs.

Data set [5] has as its system HUVEC. Description: HUVEC apoptosis. It is filed as cell-based, human. The note with it: overexpression for 48 hours.
In a further data set the test system is MRE11a, RAD50 and NBN. Description: Target validation in HUVEC (Western blot, qPCR). The note with it: qPCR and immunofluorescence. Type of data set: cell-based, human. The method, then: as §1, with “Blots were scanned on the Licor Odyssey scanner according to manufacturer's instructions.” left out
Total RNA and microRNA were isolated using miRVana microRNA isolation kit (Ambion). […] The relative quantification of gene expression was determined using the 2-DDCtmethod. […]

For data set [6], the system named is HUVEC. Nature of the data set: HUVEC cell proliferation assay. It is filed as cell-based, human.
The test system of data set [7] is 3'-UTRs of MRE11a, RAD50, and NBN. Description: 3'-UTR luciferase reporter assay in HEK-293T cells. It is filed as cell-based, human. The note with it: 24 hours cotransfection. As to the method:
To determine targets of miR-99b and miR-494, the RNAs were ectopically expressed in HUVECs. Targets were analyzed using a DNA damage array 24 hours after transfection. Three common targets for miR-99b and miR-494 were identified: MRE11a, RAD50 and NBN. These three proteins form the MRN complex which is involved in homologous repair and non-homologous end joining. mRNA targets of miR-494 and miR-99b were also assessed using a miR-TRAP assay. […] Finally, the 3′-UTRs of MRE11a, RAD50, and NBN were cloned into luciferase reporter vectors. The luciferase vectors were contrasfected with miR-494 and miR99b into HEK-293T cells for 24 hours.
MRE11a Luciferase-3-UTR plasmid was purchased from SwitchGear Genomics. RAD50 and NBN luciferase constructs were purchased as pmiR-REPORT vector (Ambion). Luciferase assay reagents were purchased from Switch Gear Genomics and Promega.
Cells were transfected at 50-60% confluence using standard forward transfection protocols using RNAimax reagent (Life Technologies) for miRs/siRNAs and Lipofectamine 2000 for plasmid or plasmid RNA dual transfections. Typically 50 nM RNA and […] plasmid DNA were used for transfections. Target protectors were transfected at a concentration of 50 nM or equivalent to the miR amounts.

The next data set relates to CD44. Description: CD44 expression (Human Senescence gene array). Type of data set: cell-based. The note with it: HUVEC. As to the method: (§2) Total RNA and microRNA were isolated using miRVana microRNA isolation kit (Ambion). Reverse transcription was performed using TaqMan™ Advanced cDNA Synthesis Kit (Life Tech) according to the manufacture instructions. RT-PCR was performed using multiplexed TaqMan primers (Applied Biosystems). The relative quantification of gene expression was determined using the 2-DDCtmethod. Using this method, we obtained the fold changes in gene expression normalized to an internal control gene, GAPDH or U6 snRNA, respectively. A DNA damage array (LifeTech) was used for targeting analysis and a Human Cellular Senescence array (SA Biosciences) was used for senescence phenotype profiling.
CD44 expression was analyzed by flow cytometry in HUVECs transfected with miR-494 for 48 hours. Cells were washed in PBS and tripsinazed. Cells were incubated in blocking solution (0.5% BSA/10% goat serum) for 30 min and 1 hour in primary antibody-PEcy7 conjugated (CD44, BD, 560533) prepared in blocking solution. Then cells were washed in PBS 3×. Cells were analyzed in a CANTOII equipment.

Data set [8] has as its system VEGF-early gene signature. Description: VEGF-early response gene expression. The note with it: HUVEC, VEGF 50 ng/ml. Type of data set: cell-based, human. The method, then:
HUVECs were transfected for a total of 48 hours. At 24 hours cells were starved overnight and then treated 3 hours with VEGF (50 ng/ml). Graphs depict mean mRNA levels+SEM.
as §2

The source of these data is US20170362590A1, “PHARMACEUTICAL COMPOSITIONS COMPRISING MICRORNA” (OREGON HEALTH & SCIENCE UNIVERSITY, priority 2016, published 2017).

Regarding `N=C1NC(=O)/C(=C/c2ccc(O)cc2)S1` [Mirin-1, reference compound], the “phosphorylation of ERK” value with ERK is reported as “decreased ERK phosphorylation”. In addition, the senescence result in the data set with HUVEC [1] (HUVEC, 50 uM, after 24 hours) was “induce senescence”.

Regarding “miR-21-3p: Human miR-21-3p (SEQ ID NO: 2), used as miR mimic (sense CAACACCAGUCGAUGGGCUGU; listed as RNA, chemistry not given here; listed as Homo sapiens)”, the telomerase activity entry in [2] is “impairing telomerase function”. In the data set on HUVEC [3], the sprouting angiogenesis result is “inhibit sprouting angiogenesis”. The “senescence (β-galactosidase positive cells)” value with HUVEC [1] (HUVEC) is “lead to endothelial senescence”.

Turning to “miR-99b: Human miR-99b-5p (SEQ ID NO: 3), used as miR mimic (sense CACCCGUAGAACCGACCUUGCG; listed as RNA, chemistry not given here; listed as Homo sapiens)”, the “expression of cell cycle regulator p21” value with p21 was “greater expression”. The “enrichment of target mRNAs in RISC pulldown relative to controls” value in data set [4] is reported as “only MRE11a was enriched”. In addition, the “phosphorylation of ERK” value in the data set with ERK is on record as “lower rate of phosphorylation of ERK”. Besides, the apoptosis result with HUVEC [5] is given as “no effect on apoptosis”. In the data set with MRE11a, RAD50 and NBN, the “protein expression of target mRNAs (MRE11a, RAD50, NBN)” value was “Blocking of protein expression”. Also, in the data set with HUVEC [6] (HUVEC, overexpression for 48 hours), the “proliferation relative to controls” value was “less proliferation”. Further, the “proliferation in old HUVECs” value with HUVEC [6] (high-passage HUVEC) is “without dramatically changing proliferation”. For the same compound, the “luciferase expression from 3'-UTR reporter vectors” value in data set [7] is given as “Significantly less luciferase expression”. Further, the telomerase activity result is listed as “Impaired telomerase activity” in [2] and “impairing telomerase function” in data set [2] (listed as miR-99b-5p). In the data set with CD44, the “expression of CD44, a marker of senescence” value is reported as “induced expression of CD44”. Also, the sprouting angiogenesis entry in the data set on HUVEC [3] is on record as “inhibited sprouting angiogenesis”; with HUVEC [3] (listed as miR-99b-5p), “inhibit sprouting angiogenesis”. Also, the specific-VEGF-early gene signature result in data set [8] is listed as “block a specific-VEGF-early gene signature”. Also, the “senescence (β-galactosidase positive cells)” value is “higher number of β-galactosidase positive cells” with HUVEC [1] (HUVEC) and “lead to endothelial senescence” with HUVEC [1] (HUVEC, listed as miR-99b-5p). The “senescence phenotype in old HUVECs” value in the data set with HUVEC [1] (high-passage HUVEC, β-galactosidase assay) is reported as “restored a senescence phenotype”.
